Laboratory results taken from US10081617B2, “Factor XIa inhibitors” (MERCK SHARP & DOHME CORP., priority 2015, dated 2018).

Molecular target: purified human Factor XIa (Homo sapiens (Human), UniProt P03951)
Test: Factor XIa Assay
Format: biochemical
Conditions: substrate Z-Gly-Pro-Arg-AFC; value printed in the compound table of Example 12; read-out: FXIa Ki
Experimental: The effectiveness of a compound of the present invention as an inhibitor of Coagulation Factor XIa can be determined using a relevant purified serine protease, and an appropriate synthetic substrate. The rate of hydrolysis of the chromogenic or fluorogenic substrate by the relevant serine protease was measured both in the absence and presence of compounds of the present invention. Assays were conducted at room temperature or at 37° C. […] A decrease in the rate of fluorescence change in the presence of inhibitor is indicative of enzyme inhibition. Such methods are known to one skilled in the art. The results of this assay are expressed as the inhibitory constant, Ki.
Factor XIa determinations were made in 50 mM HEPES buffer at pH 7.4 containing 150 mM NaCl, 5 mM CaCl2, and 0.1% PEG 8000 (polyethylene glycol; JT Baker or Fisher Scientific).
Times required to achieve equilibration between enzyme and inhibitor were determined in control experiments. Initial velocities of product formation in the absence (Vo) or presence of inhibitor (Vi) were measured. […]

Sequence of purified human Factor XIa (P03951 388-625): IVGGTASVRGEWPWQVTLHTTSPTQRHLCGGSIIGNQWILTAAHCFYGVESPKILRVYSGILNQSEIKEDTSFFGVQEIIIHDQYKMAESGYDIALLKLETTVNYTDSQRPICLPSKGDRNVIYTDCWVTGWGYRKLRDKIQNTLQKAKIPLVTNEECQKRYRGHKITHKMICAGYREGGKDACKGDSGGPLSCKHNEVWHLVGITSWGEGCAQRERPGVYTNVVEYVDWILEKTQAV
Sequence of purified human Factor XIa (P03951 19-387 partner): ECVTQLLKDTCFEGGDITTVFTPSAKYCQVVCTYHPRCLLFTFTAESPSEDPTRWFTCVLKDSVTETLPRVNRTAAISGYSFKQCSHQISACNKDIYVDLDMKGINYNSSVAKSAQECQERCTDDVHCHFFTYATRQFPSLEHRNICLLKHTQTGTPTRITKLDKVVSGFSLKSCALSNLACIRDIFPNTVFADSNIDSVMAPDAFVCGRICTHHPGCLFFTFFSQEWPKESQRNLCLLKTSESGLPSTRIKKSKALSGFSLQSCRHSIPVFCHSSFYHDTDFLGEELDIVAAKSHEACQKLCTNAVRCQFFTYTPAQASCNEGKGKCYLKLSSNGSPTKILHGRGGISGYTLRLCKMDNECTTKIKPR

SMILES: O=C(O)c1ccc(-c2cnc(C3CCc4cc(-c5cc(Cl)ccc5-n5cnnn5)c[n+]([O-])c43)[nH]2)s1 (stereo not shown) [Example 12, 5-(2-{3-[5-chloro-2-(1H-tetrazol-1-yl)phenyl]-1-oxido-6,7-dihydro-5H-cyclopenta[b]pyridin-7-yl}-1H-imidazol-5-yl)thiophene-2-carboxylic acid]
- Ki: 3.08 nM
